From patent US20240287062A1, “NAPHTHYRIDONE COMPOUNDS FOR INHIBITION OF RAF KINASES AND/OR BCR-ABL TYROSINE KINASES” (Enliven Inc., priority 2021, published 2024)

Experiments:
KDR (VEGFR2) = KDR (VEGFR2) (Homo sapiens (Human), UniProt P35968); test: Luminescence-based KDR kinase assay (Km ATP), ADP-Glo; type: biochemical; settings: compound at 100 nM concentration
Procedure: (§1) Kinase activity of KDR was measured using the ADP-Glo system (Promega). Compounds were diluted in DMSO at 100 μM. 20 nL of compound or DMSO only (high control, HC) were added to a 384-well plate (OptiPlate-384, PerkinElmer) using an Echo550 liquid handler (Labcyte). 15 μL of kinase solution (10 mM MgCl2, 0.01% Brij-35, 2 mM DTT, 0.05% BSA, 1 mM EGTA, 0.05% CHAPSO, 50 mM HEPES pH 7.5, and 0.665 nM KDR [Carna Biosciences]) were added to each well of the 384-well plate containing the compounds. No enzyme control wells were included (low control, LC). The plate was incubated at room temperature for 30 minutes. 5 μL of a second solution containing 10 mM MgCl2, 0.01% Brij-35, 2 mM DTT, 0.05% BSA, 1 mM EGTA, 50 mM HEPES pH 7.5, 6 μM Peptide 22 (Perkin Elmer, Cat No 760366), and 400 μM ATP were added to each well to start the kinase reaction. The plate was incubated for 90 minutes at room temperature. 20 μL of ADP-Glo reagent (Promega) were then added to each well and the plate was incubated for 40 minutes at room temperature. […] During this step, ADP was converted to ATP, a substrate for luciferase, to produce luminescence signal. Luminescence was measured on an Envision plate reader (Perkin Elmer). Luminescence signal positively correlates with kinase activity. The percent inhibition of kinase activity was calculated as follows: percent inhibition=100×(LumHC−LumSample)/(LumHC−LumLC). […]

[1] = system: phosphorylated ERK (pERK); test: Detection of phosphorylated ERK (pERK), AlphaLISA in A375 cells; type: cell-based; settings: Homo sapiens, A-375, 4 h, four hours incubation, inhibition of ERK phosphorylation, read-out: PERK ELISA (IC50)
Procedure: A375 cells were counted and seeded at 10,000 cells/well in 384 well plates (Corning 3764) and allowed to adhere overnight.
Compounds were dissolved and serially diluted in DMSO. The compounds were then added, mixed, and incubated for four hours at 37° C., 5% CO2. Compounds were added using four-fold dilutions at final concentrations ranging from 10 μM to 0.01 nM. DMSO only and 10 uM staurosporine were added as high and low controls.
Following the four-hour incubation with compounds, cell lysates were prepared and AlphaLISA assay measuring phosphorylated ERK was performed. Media was removed using the Apricot Designs pipettor. Lysis buffer was made from 1× AlphaLISA SureFire Assay Kit (AlphaLISA SureFire Ultra pERK 12 (Thr202/Tyr204) ALSU-PERK-A50K) lysis buffer with protease and phosphatase inhibitors. Cells were lysed by adding 10 uL to all the wells and mixed for 40 minutes on a plate shaker. 10 uL cell lysate was transferred to a new Optiplate (PerkinElmer 6007290) and incubated with 5 uL 1× acceptor mix for 2 hours in the dark. 5 uL of 1× donor mix was added to all wells and mixed by shaking followed by overnight incubation in the dark.
pERK AlphaLISA signal was read on the Envision using standard AlphaLISA settings. Percent inhibition of ERK phosphorylation was calculated by % Inhibition=100×(LumHC−LumSample)/(LumHC−LumLC). The low and high controls (LC/HC) are generated from lysate from wells with cells treated with DMSO or […] Staurosporine (BioAustralis, cat #BIA-S1086), […]. IC50 values were calculated by fitting the Curve using XLfit (v5.3.1.3), equation 201: Y=Bottom+(Top−Bottom)/(1+10^((Log IC50−X)*HillSlope)).

K562 cells = test: K562 cell proliferation assay (CellTiter-Glo); type: cell-based; settings: Homo sapiens; K562 cell line, 72 hours, cell viability
Procedure: K562 cells, cultured in Iscove's Modified Dulbecco's Media (IMDM) supplemented with 10% FBS, were harvested at 50-80% confluency and plated at 2,000 cells per well in 384-well tissue culture plates. A subset of wells contained media only (low control, LC). Compounds were serially diluted in DMSO. 40 nL of compound or DMSO only (high control, HC) were added to each well using an Echo 550 liquid handler (Labcyte). The plates were placed in a 37° C. incubator with 5% CO2 for 72 hours. Cell viability was measured using a CellTiter-Glo luminescent cell viability assay (Promega), which allows for relative quantification of metabolically active cells by luminescence-based measurements of intracellular ATP concentrations. Briefly, plates were removed from the incubator and equilibrated for 15 minutes at room temperature prior to the addition of 40 μL of CellTiter-Glo reagent. Plates were then incubated for 30 minutes at room temperature. Luminescence was measured using an EnSpire plate reader (Perkin Elmer). As noted above, luminescence values from wells with DMSO only or media without cells were used as high and low controls (HC and LC), respectively. Normalized percent viability was calculated as follows: percent viability=100×(LumSample−LumLC)/(LumHC−LumLC). IC50 values were calculated using the XLFit software.

PDGFRα = PDGFRα (Homo sapiens (Human), UniProt P16234); test: Luminescence-based PDGFRα kinase assay (Km ATP), ADP-Glo; type: biochemical; settings: compound at 100 nM concentration
Procedure: as §1, with “PDGFRα” for “KDR”, “EGTA,” for “EGTA, 0.05% CHAPSO,”, “13.3” for “0.665”, “0.8 μg/ml Poly(Glu-Tyr) (Sigma,” for “6 μM Peptide 22 (Perkin Elmer,”, “97105-00-5),” for “760366),”, “120” for “400”

PDGFRα, sequence (P16234 24-1089): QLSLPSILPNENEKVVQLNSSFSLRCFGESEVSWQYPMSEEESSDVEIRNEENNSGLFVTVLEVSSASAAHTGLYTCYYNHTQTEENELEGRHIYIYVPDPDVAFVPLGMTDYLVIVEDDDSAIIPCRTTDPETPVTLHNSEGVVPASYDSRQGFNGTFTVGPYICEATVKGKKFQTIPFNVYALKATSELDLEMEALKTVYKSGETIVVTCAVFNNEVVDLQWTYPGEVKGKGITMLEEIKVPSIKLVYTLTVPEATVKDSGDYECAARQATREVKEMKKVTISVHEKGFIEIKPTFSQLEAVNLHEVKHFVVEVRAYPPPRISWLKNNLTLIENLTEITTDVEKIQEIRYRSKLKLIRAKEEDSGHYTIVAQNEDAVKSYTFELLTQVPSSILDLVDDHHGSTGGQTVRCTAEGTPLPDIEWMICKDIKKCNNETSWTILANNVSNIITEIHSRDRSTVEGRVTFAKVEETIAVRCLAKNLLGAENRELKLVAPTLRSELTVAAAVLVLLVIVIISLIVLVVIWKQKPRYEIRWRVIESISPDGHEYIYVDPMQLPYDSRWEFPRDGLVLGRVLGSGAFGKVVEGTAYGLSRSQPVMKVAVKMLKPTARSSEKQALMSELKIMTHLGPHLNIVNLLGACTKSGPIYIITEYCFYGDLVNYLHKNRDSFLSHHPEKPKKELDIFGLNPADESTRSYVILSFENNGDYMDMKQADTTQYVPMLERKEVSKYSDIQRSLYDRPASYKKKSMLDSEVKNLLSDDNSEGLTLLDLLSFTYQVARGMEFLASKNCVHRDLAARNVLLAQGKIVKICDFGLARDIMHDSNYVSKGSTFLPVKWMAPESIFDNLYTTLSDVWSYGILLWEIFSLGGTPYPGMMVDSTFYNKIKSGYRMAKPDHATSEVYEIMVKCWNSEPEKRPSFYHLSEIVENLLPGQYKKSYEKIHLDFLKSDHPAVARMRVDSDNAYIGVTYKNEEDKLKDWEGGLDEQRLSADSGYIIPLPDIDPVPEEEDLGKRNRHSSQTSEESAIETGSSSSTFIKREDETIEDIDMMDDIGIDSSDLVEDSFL
KDR (VEGFR2), sequence (P35968 20-1356): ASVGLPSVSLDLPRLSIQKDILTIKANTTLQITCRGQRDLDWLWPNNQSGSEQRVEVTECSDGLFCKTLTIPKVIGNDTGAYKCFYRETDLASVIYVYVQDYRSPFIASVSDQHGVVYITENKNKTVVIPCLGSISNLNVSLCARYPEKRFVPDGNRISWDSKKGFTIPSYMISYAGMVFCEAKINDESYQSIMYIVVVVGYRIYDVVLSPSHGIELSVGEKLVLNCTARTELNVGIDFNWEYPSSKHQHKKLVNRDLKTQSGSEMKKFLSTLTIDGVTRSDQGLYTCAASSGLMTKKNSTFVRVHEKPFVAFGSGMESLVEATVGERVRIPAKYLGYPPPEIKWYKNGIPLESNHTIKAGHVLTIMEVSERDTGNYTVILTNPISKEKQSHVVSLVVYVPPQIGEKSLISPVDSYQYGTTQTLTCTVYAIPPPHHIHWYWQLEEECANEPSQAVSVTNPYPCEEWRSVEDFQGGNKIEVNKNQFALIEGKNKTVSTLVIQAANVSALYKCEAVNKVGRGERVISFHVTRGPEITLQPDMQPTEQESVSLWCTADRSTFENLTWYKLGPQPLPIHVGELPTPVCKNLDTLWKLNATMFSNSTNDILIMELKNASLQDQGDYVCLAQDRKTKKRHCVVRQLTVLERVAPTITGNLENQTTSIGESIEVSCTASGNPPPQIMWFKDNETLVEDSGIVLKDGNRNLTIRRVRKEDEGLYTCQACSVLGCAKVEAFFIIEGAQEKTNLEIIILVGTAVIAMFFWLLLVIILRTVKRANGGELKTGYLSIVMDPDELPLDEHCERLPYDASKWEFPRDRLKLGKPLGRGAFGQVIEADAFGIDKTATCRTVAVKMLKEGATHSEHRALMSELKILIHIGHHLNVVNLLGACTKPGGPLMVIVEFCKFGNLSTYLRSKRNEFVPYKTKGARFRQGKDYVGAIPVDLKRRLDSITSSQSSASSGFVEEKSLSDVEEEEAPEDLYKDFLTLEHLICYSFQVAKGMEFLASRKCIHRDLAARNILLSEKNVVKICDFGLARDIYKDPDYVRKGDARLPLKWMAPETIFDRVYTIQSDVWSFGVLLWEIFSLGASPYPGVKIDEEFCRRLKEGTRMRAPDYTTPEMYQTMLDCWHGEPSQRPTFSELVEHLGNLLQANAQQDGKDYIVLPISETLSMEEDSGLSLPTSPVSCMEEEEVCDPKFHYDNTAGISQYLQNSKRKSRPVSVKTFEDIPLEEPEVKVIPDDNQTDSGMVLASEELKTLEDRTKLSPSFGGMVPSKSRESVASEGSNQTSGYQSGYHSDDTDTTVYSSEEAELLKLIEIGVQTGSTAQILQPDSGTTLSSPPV

Cc1c(F)cncc1-c1cc2cnc(NC(=O)C3CC3)cc2n(C)c1=O [Compound 2, N-[3-(5-fluoro-4-methylpyridin-3-yl)-1-methyl-2-oxo-1,6-naphthyridin-7-yl]cyclopropanecarboxamide]
inhibition at 0.1 µM (KDR (VEGFR2)): 32%
IC50 [1]: 189 nM
IC50 (K562 cells): 28 nM
inhibition at 0.1 µM (PDGFRα): 33%

Cc1c(F)cncc1-c1cc2cnc(NC(=O)[C@@H]3C[C@@H]3F)cc2n(C)c1=O [Compound 28, (1S,2S)-2-fluoro-N-[3-(5-fluoro-4-methylpyridin-3-yl)-1-methyl-2-oxo-1,6-naphthyridin-7-yl]cyclopropane-1-carboxamide]
inhibition at 0.1 µM (KDR (VEGFR2)): 27%
IC50 [1]: 146 nM
IC50 (K562 cells): 47 nM
inhibition at 0.1 µM (PDGFRα): 15%
